Measured values: patent US20180110740A1, “METHODS AND MATERIALS FOR TREATING ENDOMETRIOSIS” (Mayo Foundation for Medical Education and Research, priority 2015, published 2018)

Tests used:
CYP3A4 = CYP3A4 promoter, expression and activity in Ishikawa cells (reporter assay, qPCR, western blot, specific substrate assay); assay type: cell-based; conditions: Dioxin 0.1-10 nM
Experimental: (§1) Ishikawa cells were treated with Dioxin (0.1-10 nM) and KLF11 or EV-control. Treatment effects were determined on CYP3A4, a well-characterized CYP450 gene that is also an endometrial estrogen metabolizing enzyme. Promoter and gene expression were determined by reporter assay, qPCR, and western blot. CYP3A4 activity was determined by a specific substrate assay. Promoter histone code was evaluated by ChIP in Ishikawa treated with Dioxin and Histone Acetyl Transferase Inhibitor (HATI) or controls. The Dioxin-endometriosis model was created per published protocols in wild type mice gavaged with Dioxin (3 μg/kg) or vehicle. Animals were additionally treated 0.2 μg/gm/day of HATI or vehicle control (N=10/grp). Disease progression was evaluated in 12 weeks by morphometry, IHC, and qPCR.

[1] = test system: endometriotic progression; assay: Dioxin-endometriosis model in wild type mice; assay type: in vivo; conditions: wild type mice gavaged with Dioxin 3 μg/kg, HATI 0.2 μg/gm/day or vehicle
Experimental: as §1

endometriotic lesions = assay: Endometriotic lesion model: autologous uterine segments implanted onto the peritoneum of Klf11-/- or wt mice; assay type: in vivo; conditions: wt animals; 50 μg/g of body weight; evaluated three weeks after treatment; vs DMSO
Experimental: FIG. 4 is a schematic diagram showing the design of the mouse endometriosis model. Two 0.5 cm uterine fragments are everted, so that the endometrium faces the peritonel cavity. These are then sutured to the flank peritoneum on either side by 8/0 proline microfilament suture.
FIG. 5 contains photographs of Klf11^-/- and wt animals induced to produce endometriosis lesions and treated with DMSO (control), garcinol (0.2 μg/g of body weight, or suberoyl anilide hydroxamic acid (SAHA; 50 μg/g of body weight). SAHA is also known as N-hydroxy-N′-phenyl-octanediamide or vorinostat. Endometriotic progression was evaluated three weeks after treatment. The arrows point to and define lesion associated scarring.
In another experiment, endometriotic lesions were induced in Klf11^-/- or wildtype (wt) mice (n=10 for each group) by implanting autologous 5 mm uterine segments onto the peritoneum (FIGS. 3 and 4). […] In addition, COL1A1 polypeptide expression was increased in implants from Klf11^-/- animals (FIGS. 3D and 3H) as compared to those from wt animals (FIGS. 3C and 3G).

Row | Compound | CYP3A4 activation (CYP3A4) | lesional CYP3A4 expression ([1]; 12 weeks) | Score ([1]; 12 weeks, P<0.05) | endometriotic disease progression ([1]; evaluated in 12 weeks by morphometry, IHC, qPCR) | fibrosis (endometriotic lesions)
1 | Clc1cc2c(cc1Cl)Oc1cc(Cl)c(Cl)cc1O2 [Dioxin, 2,3,7,8-tetrachlorodibenzodioxin] | dose-dependently activated | lesional epithelial CYP3A4 activation | 26.4 | prolific endometriotic progression | 
2 | O=C(CCCCCCC(=O)Nc1ccccc1)NO [SAHA, N-hydroxy-N′-phenyl-octanediamide] |  |  |  |  | induction of de novo fibrosis
